# Results: patent US4292319A, “Antiphlogistic pharmaceutical compositions and method of use” (Boehringer Ingelheim GmbH, priority 1977, dated 1981)
# Values joined by “and” are separate entries in the source; they are usually repeats but may differ in a detail not shown here. Equal entries are not always repeated. Where two headings read alike, the source gives them in different places.
# Experiments:
# [1] = test system: carrageenin-induced edema of the hind paw of the rat; assay: Test for antiphlogistic effect against the carrageenin-induced edema of the hind paw of the rat; format: in vivo; conditions: for Thickness of the paw (mean): oral, 3 h after carrageenin; for Thickness of the paw (mean) / ED35: rat; for influence on acute anti-exudative (antiphlogistic) effect of non-steroidal antiphlogistics: carrageenin-induced edema, simultaneous oral administration; for ED35: Rattus norvegicus, po, 3 h, carrageenin edema
# Method: The test was carried out in analogy to the above test for the kaolin-induced edema. However, the edema was induced according to the method of WINTER et al. [J. Pharmacol. 141, 369 (1963)] by subplantary injection of 0.05 ml of a 1% solution of carrageenin in an aqueous 0.85% solution of sodium chloride. […] Three hours after the provocation of the edema the measurement which provided the basis for the evaluation of an anti-exudative effect was carried out.
# (§1) From the swelling values obtained by administration of different dosages of non-steroidal antiphlogistics with or without the addition of pirenzepine dihydrochloride, using a linear regression analysis according to LINDNER [Statistische Methoden, 4th Ed., pages 148-162, Birkhauser, Basel, Switzerland (1964)], the ED35 values of the antiphlogistics were calculated with the confidence limits according to FIELLER [Quart. J. Pharm. Pharmacol. 17, 117 (1944)], the ED35 being the dosage which reduces the swelling of the paws by 35% in comparison to the control animals.
# [2] = test system: kaolin-induced edema of the rat's hind paw; assay: Test for antiphlogistic effect against the kaolin-induced edema of the rat's hind paw; format: in vivo, rat (Chbb:THOM); conditions: for Thickness of the paw (mean): 5 h after kaolin; for Thickness of the paw (mean) / ED35: rat; for influence on acute anti-exudative (antiphlogistic) effect of non-steroidal antiphlogistics: kaolin-induced edema, simultaneous oral administration; for ED35: Rattus norvegicus, po, 5 h, kaolin edema
# Method: (2) Test for antiphlogistic effect against the kaolin-induced edema of the rat's hind paw (tested substances: A, B, C and D)
# The test was carried out on male Chbb:THOM-rats with a body weight between 125 and 150 gm. According to HILLEBRECHT [Arzneimittel-Forsch. 4, 607 (1954)], a subplantary injection of 0.05 ml of a 10% suspension of kaolin in an aqueous 0.85% sodium chloride solution in the hind paw was used for the provocation of the kaolin edema. The other hind paw was subplantarily injected with the same volume of an aqueous 0.85% sodium chloride solution.
# The measurement of the thickness of the paws was carried out using the technique of DOEPFNER and […] [Int. Arch. Allergy appl. Immunol. 12, 89 (1958)] by way of the determination of the maximum sagittal diameter, using a measuring device with constant pressure, before and 5 hours after the provocation of the edema.
# The test substances (the non-steroidal antiphlogistics or the mixture of non-steroidal antiphlogistics with pirenzepine dihydrochloride) were administered 30 minutes before provocation of the edema as a trituration in 1% tylose (1 ml/[…]) by way of an esophageal tube.
# The diameter of the paw measured before the beginning of the test as well as the increase in diameter of the other paw caused by injection were subtracted from the diameter of the kaolin-treated paw, and this difference, being the real swelling value, was used for the further calculations.
# as §1
# ulcer = format: in vivo; conditions: several hundred cases, two years
# [3] = Test for ulcerogenic effect on the stomach of the rat; format: in vivo, rat (Chbb:THOM); conditions: in vivo, po
# Method: (§2) (1) Test for ulcerogenic effect on the stomach of the rat
# (§3) The test was carried out on male and female (1:1) Chbb:THOM-rats with a body weight between 130 to 150 gm at the beginning of the study.
# (§4) The test substances (non-steroidal anti-phlogistics or mixtures of these antiphlogistics with pirenzepine dihydrochloride) were administered as triturations in 1% tylose (1 ml/100 gm animal) by way of an esophageal tube once a day on three successive days.
# (§5) Four hours after the last administration (i.e. on the 3rd day) the animals were killed by an over-dose of ether. The stomachs wer dissected, cut along the great curvature and washed under flowing water for subsequent macroscopic evaluation.
# stomach of the rat = assay: as above; format: in vivo, rat (Chbb:THOM); conditions: oral, 3 subsequent days
# Method: as §2, §3, §4, §5
# gastro-intestinal tract = conditions: cited from earlier work
# [4] = listed as pirenzepine dihydrochloride, dihydrochloride
# [5] = clinical, depending upon experience, patients and compound primarily used
# [6] = antiphlogistic 50 mgm/kg + A 400 mgm/kg
# [7] = antiphlogistic 50 mgm/kg, without A
# [8] = antiphlogistic 100 mgm/kg + A 400 mgm/kg
# [9] = antiphlogistic 100 mgm/kg, without A
# [10] = antiphlogistic 200 mgm/kg, without A
smiles,measurement,setting,value
"CN1CCN(CC(=O)N2c3ccccc3C(=O)Nc3cccnc32)CC1.Cl.Cl [A, 5,11-dihydro-11-[(4-methyl-1-piperazinyl)-acetyl]-6H-pyrido[2,3-b] [1,4] benzodiazepin-6-one dihydrochloride]",Thickness of the paw (mean),"[1]; Controls with A 400 mgm/kg, no antiphlogistic, dihydrochloride",272.0 10^-2 mm and 271.0 10^-2 mm
same,influence on acute anti-exudative (antiphlogistic) effect of non-steroidal antiphlogistics,[1]; dihydrochloride,not reduced
same,influence on acute anti-exudative (antiphlogistic) effect of non-steroidal antiphlogistics,[1]; [4],does not lead to a reduction of the acute anti-exudative effect
same,Thickness of the paw (mean),"[2]; Controls with A 100 mgm/kg, no antiphlogistic, oral, dihydrochloride",277.5 10^-2 mm and 276.3 10^-2 mm and 278.0 10^-2 mm
same,influence on acute anti-exudative (antiphlogistic) effect of non-steroidal antiphlogistics,[2]; dihydrochloride,not reduced
same,influence on acute anti-exudative (antiphlogistic) effect of non-steroidal antiphlogistics,[2]; [4],does not lead to a reduction of the acute anti-exudative effect
same,ulcer rate,ulcer; pirenzepine dihydrochloride together with indomethacin,~0%
"COc1ccc2c(c1)c(CC(=O)O)c(C)n2C(=O)c1ccc(Cl)cc1 [B, 1-(4-chloro-benzoyl)-5-methoxy-2-methyl-1H-indole-3-aceticacid]",TD50,"[3]; with A 50 mgm/kg, oral, 3 subsequent days, read-out: ED50-ulcer",3.3 mg/kg
same,TD50,"[3]; with A 100 mgm/kg, oral, 3 subsequent days, read-out: ED50-ulcer",4.9 mg/kg
same,TD50,"[3]; without A, oral, 3 subsequent days, read-out: ED50-ulcer",2.55 mg/kg
same,Ratio of animals with ulcers,"stomach of the rat; antiphlogistic 2 mgm/kg, without A",4/18
same,Ratio of animals with ulcers,stomach of the rat; antiphlogistic 2.8 mgm/kg + A 50 mgm/kg,4/16
same,Ratio of animals with ulcers,stomach of the rat; antiphlogistic 2.8 mgm/kg + A 100 mgm/kg,4/16
same,Ratio of animals with ulcers,"stomach of the rat; antiphlogistic 2.8 mgm/kg, without A",11/18
same,Ratio of animals with ulcers,stomach of the rat; antiphlogistic 4.0 mgm/kg + A 50 mgm/kg,12/16
same,Ratio of animals with ulcers,stomach of the rat; antiphlogistic 4.0 mgm/kg + A 100 mgm/kg,5/15
same,Ratio of animals with ulcers,"stomach of the rat; antiphlogistic 4 mgm/kg, without A",16/18
same,Ratio of animals with ulcers,stomach of the rat; antiphlogistic 5.66 mgm/kg + A 50 mgm/kg,13/15
same,Ratio of animals with ulcers,stomach of the rat; antiphlogistic 5.66 mgm/kg + A 100 mgm/kg,8/15
same,Ratio of animals with ulcers,stomach of the rat; antiphlogistic 8.0 mgm/kg + A 100 mgm/kg,15/15
same,ED35,[2]; with A 100 mgm/kg,3 mg/kg
same,ED35,[2]; without A,4.3 mg/kg
same,Thickness of the paw (mean),"[2]; antiphlogistic 1.5 mgm/kg + A 100 mgm/kg, oral",200.3 10^-2 mm
same,Thickness of the paw (mean),"[2]; antiphlogistic 1.5 mgm/kg, without A, oral",214.8 10^-2 mm
same,Thickness of the paw (mean),"[2]; antiphlogistic 3.0 mgm/kg + A 100 mgm/kg, oral",178.3 10^-2 mm
same,Thickness of the paw (mean),"[2]; antiphlogistic 3.0 mgm/kg, without A, oral",189.0 10^-2 mm
same,Thickness of the paw (mean),"[2]; antiphlogistic 6.0 mgm/kg + A 100 mgm/kg, oral",162.9 10^-2 mm
same,Thickness of the paw (mean),"[2]; antiphlogistic 6.0 mgm/kg, without A, oral",164.5 10^-2 mm
same,ulcer rate,ulcer; without pirenzepine dihydrochloride,37%
same,"gastro-intestinal incompatabilities encountered, share of all cases",gastro-intestinal tract; [5],25-37%
"CCCCC1C(=O)N(c2ccccc2)N(c2ccccc2)C1=O [G, 4-butyl-1,2-diphenyl-3,5-pyrazolidinedione]",ED35,[1]; with A 400 mgm/kg,45.7 mg/kg
same,ED35,[1]; without A,51.7 mg/kg
same,Thickness of the paw (mean),[1]; antiphlogistic 25 mgm/kg + A 400 mgm/kg,205.0 10^-2 mm
same,Thickness of the paw (mean),"[1]; antiphlogistic 25 mgm/kg, without A",216.8 10^-2 mm
same,Thickness of the paw (mean),[1]; [6],173.5 10^-2 mm
same,Thickness of the paw (mean),[1]; [7],175.8 10^-2 mm
same,Thickness of the paw (mean),[1]; [8],138.9 10^-2 mm
same,Thickness of the paw (mean),[1]; [9],153.8 10^-2 mm
same,Thickness of the paw (mean),[1]; [10],125.0 10^-2 mm
same,TD50,[3]; ED50-ulcer,69 mg/kg
same,Ratio of animals with ulcers,stomach of the rat; antiphlogistic 50 mgm/kg + A 200 mgm/kg,2/20
same,Ratio of animals with ulcers,stomach of the rat; [6],0/20
same,Ratio of animals with ulcers,stomach of the rat; [7],4/20
same,Ratio of animals with ulcers,stomach of the rat; antiphlogistic 71 mgm/kg + A 200 mgm/kg,8/20
same,Ratio of animals with ulcers,stomach of the rat; antiphlogistic 71 mgm/kg + A 400 mgm/kg,0/20
same,Ratio of animals with ulcers,stomach of the rat; antiphlogistic 100 mgm/kg + A 200 mgm/kg,15/20
same,Ratio of animals with ulcers,stomach of the rat; [8],6/20
same,Ratio of animals with ulcers,stomach of the rat; [9],14/20
same,Ratio of animals with ulcers,stomach of the rat; antiphlogistic 200 mgm/kg + A 200 mgm/kg,20/20
same,Ratio of animals with ulcers,stomach of the rat; antiphlogistic 200 mgm/kg + A 400 mgm/kg,14/20
same,Ratio of animals with ulcers,stomach of the rat; [10],20/20
same,Ratio of animals with ulcers,stomach of the rat; antiphlogistic 400 mgm/kg + A 400 mgm/kg,18/19
same,"gastro-intestinal incompatabilities encountered, share of all cases","gastro-intestinal tract; human, in vivo",25-37%
"CCCC1C(=O)N2C(N(C)C)=Nc3ccc(C)cc3N2C1=O (stereo not drawn) [azapropazone, 5-dimethylamino-9-methyl-2-propyl-1H-pyrazolo[1,2-a][1,2,4]benzotriazine-1,3(2H)-dione]","gastro-intestinal incompatabilities encountered, share of all cases",gastro-intestinal tract; [5],25-37%
"OCCCCc1ccc(-c2ccccc2)cc1 [D, 4-(4-biphenylyl)-butanol]",TD50,[3]; ED50-ulcer,44.5 mg/kg
same,Ratio of animals with ulcers,"stomach of the rat; antiphlogistic 28.1 mgm/kg, without A",4/17
same,Ratio of animals with ulcers,"stomach of the rat; antiphlogistic 37.5 mgm/kg, without A",5/17
same,Ratio of animals with ulcers,stomach of the rat; antiphlogistic 50.0 mgm/kg + A 50 mgm/kg,1/16
same,Ratio of animals with ulcers,stomach of the rat; antiphlogistic 50 mgm/kg + A 100 mgm/kg,2/16
same,Ratio of animals with ulcers,stomach of the rat; [7],9/17
same,Ratio of animals with ulcers,stomach of the rat; antiphlogistic 67.5 mgm/kg + A 50 mgm/kg,6/16
same,Ratio of animals with ulcers,stomach of the rat; antiphlogistic 67.5 mgm/kg + A 100 mgm/kg,5/15
same,Ratio of animals with ulcers,"stomach of the rat; antiphlogistic 67.5 mgm/kg, without A",15/17
same,Ratio of animals with ulcers,stomach of the rat; antiphlogistic 91.1 mgm/kg + A 50 mgm/kg,11/14
same,Ratio of animals with ulcers,stomach of the rat; antiphlogistic 91.1 mgm/kg + A 100 mgm/kg,7/15
same,Ratio of animals with ulcers,stomach of the rat; antiphlogistic 123.0 mgm/kg + A 50 mgm/kg,13/14
same,Ratio of animals with ulcers,stomach of the rat; antiphlogistic 123.0 mgm/kg + A 100 mgm/kg,10/13
same,ED35,"[2]; with A 100 mgm/kg, oral, read-out: ED35",12.1 mg/kg
same,ED35,"[2]; without A, oral, read-out: ED35",11.2 mg/kg
same,Thickness of the paw (mean),"[2]; antiphlogistic 6.25 mgm/kg + A 100 mgm/kg, oral",215.5 10^-2 mm
same,Thickness of the paw (mean),"[2]; antiphlogistic 6.25 mgm/kg, without A, oral",214.3 10^-2 mm
same,Thickness of the paw (mean),"[2]; antiphlogistic 12 mgm/kg + A 100 mgm/kg, oral",180.4 10^-2 mm
same,Thickness of the paw (mean),"[2]; antiphlogistic 12 mgm/kg, without A, oral",165.0 10^-2 mm
same,Thickness of the paw (mean),"[2]; antiphlogistic 25 mgm/kg + A 100 mgm/kg, oral",141.0 10^-2 mm
same,Thickness of the paw (mean),"[2]; antiphlogistic 25 mgm/kg, without A, oral",124.0 10^-2 mm
